From patent US20220040280A1, “INHIBITORS AND USES THEREOF” (UNIVERSITY OF CANBERRA, priority 2016, published 2022)

Experiments:
[1] = target: T1, LSD1 (Homo sapiens, UniProt O60341); assay: Nuclear LSD1 in MCF7 cells treated with LSD1 inhibitors, confocal microscopy; format: cell-based; conditions: MCF7 cells stimulated with PMA for 60 hours, FIGS. 28 and 29
T1 construct: endogenous in cells; host or cells: MCF7 (non-stimulated or PMA-stimulated) and MDA-MB-231 breast cancer cells
Description: (§1) Confocal laser scanning microscopy was performed on either MDA-MB-231 cells treated with vehicle alone or MCF7 cells treated with vehicle alone or PMA for 60 h, and subsequently treated with a test inhibitor or vehicle alone. Test inhibitors include LSD1 siRNA or LSD1 catalytic inhibitors NCD36 (2-[N-(4-phenylbenzenecarbonyl)]amino-6-(trans-2-phenylcyclopropan-1-amino)-N-(3-methylbenzyl)hexanamide hydrochloride) or pargyline (Parg). Cells were fixed with 3.7% formaldehyde and permeabilized with 2% Triton-X-100, and then probed with a primary mouse antibody to LSD1 and a primary goat antibody to SNAIL, respectively, followed by the corresponding secondary antibodies conjugated to Alexa-Fluor 488 and […], respectively. TNFI values for MDA-MB-231, non-stimulated MCF7 and stimulated MCF7 cells were calculated. Data shown represent the mean±SE for at least 20 individual cells.

[2] = tested on: SNAIL; assay: Nuclear SNAIL in MCF7 cells treated with LSD1 inhibitors, confocal microscopy; format: cell-based, human; conditions: MCF7 cells stimulated with PMA for 60 hours, FIGS. 28 and 29
Description: as §1

[3] = target: T1, LSD1; assay: Nuclear LSD1 in MDA-MB-231 cells treated with LSD1 inhibitors, confocal microscopy; format: cell-based; conditions: FIG. 30
Description: as §1

[4] = tested on: SNAIL; assay: Nuclear SNAIL in MDA-MB-231 cells treated with LSD1 inhibitors, confocal microscopy; format: cell-based, human; conditions: FIG. 30
Description: as §1

[5] = tested on: LSD1s111p; assay: Confocal microscopy of LSD1s111p in xenografted MDA-MB-231 cells; format: in vivo, mouse; conditions: xenograft MDA-MB-231 cells; Abraxane 60 mg/kg, Docetaxel 10 mg/kg, Phenelzine 41 mg/kg; relative to vehicle control
Excerpt: (§2) Cells were probed with either rabbit antibodies to LSD1s111p (Merck ABE1462), EGFR (AB2430), MET (ab51067), PD-L1 (sc-50298), goat antibodies to PD-L1 (sc-19091), SC-14033), (sc-19096), mouse antibodies to Cytokeratin (Miltenyi 130-090-866), CSV (Abnova H00007431-M08), vimentin (SC-6260) followed by visualisation with secondary anti mouse Alexa-Fluor 568 (A10037), secondary anti rabbit Alexa-Fluor 488 (A21206) or secondary anti goat Alexa-Fluor 633 (A21082).
The nuclear intensity of LSD1s111p was measured using confocal laser scanning microscopy in xenografted MDA-MB-231 cells treated with vehicle alone or Abraxene (60 mg/kg) or Docetaxel (10 mg/kg). Cells were fixed with 3.7% formaldehyde and permeabilized with 2% Triton-X-100, and then probed with a primary rabbit antibody to LSD1s111p, followed by the corresponding secondary antibody conjugated to Alexa-Fluor 488. Total nuclear fluorescence (TNFI) values for xenografted MDA-MB-231 cells were calculated. Data shown represents the mean±SE for at least 20 individual cells.

[6] = tested on: EGFR; assay: Confocal microscopy of EGFR in xenografted MDA-MB-231 cells; format: in vivo, mouse; conditions: xenograft MDA-MB-231 cells; Abraxane 60 mg/kg, Docetaxel 10 mg/kg, Phenelzine 41 mg/kg; relative to vehicle control
Excerpt: as §2

[7] = tested on: SNAIL; assay: Confocal microscopy of SNAIL in xenografted MDA-MB-231 cells; format: in vivo, mouse; conditions: xenograft MDA-MB-231 cells; Abraxane 60 mg/kg, Docetaxel 10 mg/kg; relative to vehicle
Excerpt: as §2

[8] = tested on: MET; assay: Confocal microscopy of MET in xenografted MDA-MB-231 cells; format: in vivo, mouse; conditions: xenograft MDA-MB-231 cells; Abraxane 60 mg/kg, Docetaxel 10 mg/kg, FIG. 11
Excerpt: as §2

[9] = target: T2, LSD1s111p (Homo sapiens, UniProt O60341); assay: Confocal microscopy of LSD1s111p in patient circulating tumor cells; format: cell-based; conditions: CTCs from two metastatic breast cancer patient liquid biopsies, FIG. 16
T2 construct: endogenous in cells; host or cells: circulating tumor cells from metastatic breast cancer patient blood
Excerpt: as §2

[10] = tested on: PD-L2; conditions: CTCs from two metastatic breast cancer patient liquid biopsies, FIG. 16
Description: (§4) Cells were permeabilised by incubating with 2% Triton X-100 for 20 min. Cells were probed with either rabbit antibodies to LSD1s111p (Merck ABE1462), EGFR (AB2430), MET (ab51067), PD-L1 (sc-50298), goat antibodies to PD-L1 (sc-19091), SC-14033), (sc-19096), mouse antibodies to Cytokeratin (Miltenyi 130-090-866), CSV (Abnova H00007431-M08), vimentin (SC-6260) followed by visualisation with secondary anti mouse Alexa-Fluor 568 (A10037), secondary anti rabbit Alexa-Fluor 488 (A21206) or secondary anti goat Alexa-Fluor 633 (A21082). Cover slips were mounted on glass microscope slides with ProLong Diamond Antifade© reagent (Life Technologies). Antibody staining was localised by confocal laser scanning microscopy. Single 0.5 μm sections were obtained using a Nikon x 60 oil immersion lens on the Nikon C1 plus confocal system running NIS-Elements AR 3.2 software. […] Digital confocal images were analysed using ImageJ software (ImageJ, NIH, Bethesda, Md., USA) to determine the nuclear/cytoplasmic fluorescence ratio (Fn/c) using the equation: Fn/c=(Fn−Fb)/(Fc−Fb), where Fn is nuclear fluorescence, Fc is cytoplasmic fluorescence, and Fb is background fluorescence or the Total Nuclear Fluorescence (TNFI), the Total Cytoplasmic Fluorescence (TCFI) or Total cell fluorescence. […] Florescence intensity was also measured in a minimum of n=10 cells for each sample set. […]

[11] = tested on: cytokeratin; conditions: CTCs from two metastatic breast cancer patient liquid biopsies, FIG. 16
Description: as §4

[12] = tested on: PD-L1; conditions: CTCs from metastatic breast cancer patients, in all but one patient, FIG. 17
Description: as §4

[13] = tested on: SNAIL; conditions: CTCs from metastatic breast cancer patients, in all but one patient, FIG. 17
Description: as §4

[14] = tested on: LSD1 phosphorylated at serine 111 (LSD1s111p); assay: LSD1s111p in MCF7 cells treated with PKC inhibitors, confocal microscopy; format: cell-based, human; conditions: FIG. 26
Description: (§3) Confocal laser scanning microscopy was performed on either MDA-MB-231 cells treated with vehicle alone or MCF7 cells treated with vehicle alone or PMA for 60 hours. To assess the effect of the PKC inhibitors, C27 (Compound 27; (R)-2-((S)-4-(3-chloro-5-fluoro-6-(1H-pyrazolo[3,4-b]pyridine-3-yl)pyridine-2-yl)piperazin-2-yl)-3-methylbutan-2-ol; see Jimenez et al. (2013) J. Med. Chem., 56(5): 1799-1810) or bisindolylmaleimide (BIM), cells were then treated with C27, BIM or vehicle. Cells were fixed with 3.7% formaldehyde and permeabilized with 2% Triton-X-100, and were then probed with primary rabbit antibody to PKC-θ and a primary mouse antibody to LSD1 or LSD1 phosphorylated at serine 111 (LSD1s111p), respectively, followed by the corresponding secondary antibody conjugated to Alexa-Fluor 488 or Alexa-Fluor 568. Total nuclear fluorescence (TNFI) values for non-stimulated and stimulated MCF7 and MDA-MB-231 cells were calculated. […] The plot-profile feature of ImageJ was used to plot the fluorescence signal intensity along a single line spanning the nucleus (n=5 lines per nucleus, 5 individual cells). The average fluorescence signal intensity for the indicated pair of antibodies was plotted for each point on the line with SE. […] The PCC was determined for each plot profile, which indicates the strength of relation between the two fluorochrome signals for at least 20 individual cells ±SE. […]

[15] = tested on: LSD1 phosphorylated at serine 111 (LSD1s111p); assay: LSD1s111p in MDA-MB-231 cells treated with PKC inhibitors, confocal microscopy; format: cell-based, human; conditions: FIG. 26
Description: as §3

[16] = tested on: cytokeratin; assay: Confocal microscopy of cytokeratin in xenografted MDA-MB-231 cells; format: in vivo, mouse; conditions: xenograft MDA-MB-231 cells; Abraxane 60 mg/kg, Phenelzine 41 mg/kg, FIG. 9
Excerpt: as §2

[17] = tested on: PD-L1; assay: Confocal microscopy of PD-L1 in xenografted MDA-MB-231 cells; format: in vivo, mouse; conditions: xenograft MDA-MB-231 cells; Abraxane 60 mg/kg, Phenelzine 41 mg/kg, FIG. 9
Excerpt: as §2

[18] = tested on: cell surface vimentin (CSV); assay: Confocal microscopy of cell surface vimentin in xenografted MDA-MB-231 cells; format: in vivo, mouse; conditions: xenograft MDA-MB-231 cells; Abraxane 60 mg/kg, Phenelzine 41 mg/kg, FIG. 10
Excerpt: as §2

| Compound | nuclear fluorescence signal of LSD1 [1] | nuclear fluorescence signal of LSD1 [3] | expression of LSD1s111p (TCFI) [9] | nuclear fluorescence signal of SNAIL [2] | nuclear fluorescence signal of SNAIL [4] | LSD1s111p expression, nuclear fluorescent signal (TNFI) [5] | EGFR nuclear expression (TNFI) [6] | expression of PD-L2 (TCFI) [10] | expression of cytokeratin (TCFI) [11] | PD-L1 expression (total cell fluorescence) [12] | SNAIL expression (total cell fluorescence) [13] | LSD1 phosphorylation (LSD1s111p, TNFI) [14] | LSD1 phosphorylation (LSD1s111p, TNFI) [15] | further results |
| --- | --- | --- | --- | --- | --- | --- | --- | --- | --- | --- | --- | --- | --- | --- |
| CC(=O)O[C@@]12CO[C@@H]1C[C@H](O)[C@@]1(C)C(=O)[C@H](O)C3=C(C)[C@@H](OC(=O)[C@H](O)[C@@H](NC(=O)OC(C)(C)C)c4ccccc4)C[C@@](O)([C@@H](OC(=O)c4ccccc4)[C@H]21)C3(C)C [Docetaxel] |  |  |  |  |  | significantly increased | significantly increased |  |  |  |  |  |  | SNAIL nuclear fluorescent signal (TNFI) [7]: significantly increased; MET nuclear expression (TNFI) [8]: significantly increased |
| CC(C)[C@@](C)(O)[C@@H]1CN(c2nc(-c3n[nH]c4ncccc34)c(F)cc2Cl)CCN1 [Peptide C27, (R)-2-((S)-4-(3-chloro-5-fluoro-6-(1H-pyrazolo[3,4-b]pyridine-3-yl)pyridine-2-yl)piperazin-2-yl)-3-methylbutan-2-ol] |  |  |  |  |  |  |  |  |  |  |  | significantly abrogated | significantly abrogated |  |
| bisindolylmaleimide [BIM] |  |  |  |  |  |  |  |  |  |  |  | significantly abrogated | significantly abrogated |  |

Further lines, with some results ahead:

| nuclear fluorescence signal of LSD1 [1] | nuclear fluorescence signal of LSD1 [3] | expression of LSD1s111p (TCFI) [9] | Compound | nuclear fluorescence signal of SNAIL [2] | nuclear fluorescence signal of SNAIL [4] | LSD1s111p expression, nuclear fluorescent signal (TNFI) [5] | EGFR nuclear expression (TNFI) [6] | expression of PD-L2 (TCFI) [10] | expression of cytokeratin (TCFI) [11] | PD-L1 expression (total cell fluorescence) [12] | SNAIL expression (total cell fluorescence) [13] | LSD1 phosphorylation (LSD1s111p, TNFI) [14] | LSD1 phosphorylation (LSD1s111p, TNFI) [15] | further results |
| --- | --- | --- | --- | --- | --- | --- | --- | --- | --- | --- | --- | --- | --- | --- |
| significantly abrogated | significantly abrogated |  | Cc1cccc(CNC(=O)C(CCCCN[C@@H]2C[C@H]2c2ccccc2)NC(=O)c2ccc(-c3ccccc3)cc2)c1.Cl (relative stereo) [NCD36, 2-[N-(4-phenylbenzenecarbonyl)]amino-6-(trans-2-phenylcyclopropan-1-amino)-N-(3-methylbenzyl)hexanamide hydrochloride] | significantly abrogated | significantly abrogated |  |  |  |  |  |  |  |  |  |
| significantly abrogated | significantly abrogated | significant knockdown | C#CCN(C)Cc1ccccc1 [Pargyline, pargyline] | significantly abrogated | significantly abrogated |  |  | significant knockdown | significant knockdown | significant knockdown | significant knockdown |  |  |  |
|  |  | significant knockdown | NNCCc1ccccc1 [Phenelzine, (+)-2-phenylethylhydrazine] |  |  | inhibitory effect | inhibitory effect | significant knockdown | significant knockdown | significant knockdown | significant knockdown |  |  | cytokeratin expression [16]: abrogated; PD-L1 expression in the cytoplasm (TCFI) [17]: significantly abrogated; PD-L1 expression in the nucleus (TNFI) [17]: significantly abrogated; PD-L1 nuclear bias (Fn/c) [17]: higher; total PD-L1 expression [17]: significantly reduced; cell surface vimentin (CSV) cytoplasmic expression (TCFI) [18]: abrogated |
